According to patent US7626043B2, “Antiproliferative activity of the leiodermatolide class of macrolides” (Florida Atlantic University Board of Trustees, priority 2006, dated 2009):

Key:
Assay type in all cases: cell-based
[1] = system: PANC-1 human pancreatic carcinoma cells; experiment: Cell cycle analysis (propidium iodide flow cytometry), PANC-1; details: PANC-1, 24 hr
Method: PANC-1 human pancreatic carcinoma cells were used as cell cycle targets to compare the effects on perturbation of the cell cycle of leiodermatolide and the known mitotic spindle inhibitor Paclitaxel. Cell cycle analyses were performed as follows: PANC-1 […] were incubated in tissue culture media (TCM=Roswell Park Memorial Institute (RPMI) medium 1640 supplemented with 100 U/ml penicillin, […] 1-glutamine, 18 mM HEPES, 0.05 mg/ml gentamicin, 100 μg/ml sodium pyruvate, 2.5 mg/ml glucose and 10% fetal bovine serum) at 37° C. in 5% CO2 in air in the presence or absence of varying concentrations of leiodermatolide or Paclitaxel for 24 hours.
(§1) Cells were harvested, fixed in ethanol and stained with 0.02 mg/ml of propidium iodide (P.I.) together with 0.1 mg/ml of RNAse A. This procedure permeabilizes cells and allows entry of P.I. to stain DNA (propidium iodide also stains double stranded RNA, so RNAse is included in the preparation to exclude this possibility). Stained preparations were analyzed on a BD Sciences Calibur Flow Cytometer with 488 nm excitation. Fluorescence measurements and resulting DNA histograms were collected from at least 3,000 P.I. stained cells at an emission wavelength of 690 nm. Raw histogram data was further analyzed using a cell cycle analysis program (Multicycle, Phoenix Flow Systems).

[2] = system: A549 human lung adenocarcinoma cells; experiment: Cell cycle analysis (propidium iodide flow cytometry), A549; details: A549, 24 hr
Method: A549 human lung adenocarcinoma cells were used as cell cycle targets to compare the effects on perturbation of the cell cycle of leiodermatolide to the known mitotic spindle inhibitor Paclitaxel. Cell cycle analyses were performed as follows: A549 human lung adenocarcinoma cells were incubated in tissue culture media (TCM=Roswell Park Memorial Institute (RPMI) medium 1640 supplemented with 100 U/ml penicillin, […] 1-glutamine, 18 mM HEPES, 0.05 mg/ml gentamicin and 10% fetal bovine serum) at 37° C. in 5% CO2 in air in the presence or absence of varying concentrations of leiodermatolide or Paclitaxel for 24 hours.
as §1

[3] = system: DLD-1 human colorectal carcinoma; experiment: MTT antiproliferative/cytotoxicity assay, DLD-1; details: 72-h exposure
Method: (§2) Leiodermatolide was analyzed as to its effects on the proliferation of a panel of tumor cell lines including both cell lines. The cell lines tested include: A549 human lung adenocarcinoma, NCI-ADR-RES (Formerly MCF-7/ADR) human cancer, PANC-1 human pancreatic cancer, DLD-1 human colorectal carcinoma, and P388 murine leukemia cell lines. P388 cells were obtained from Dr. R. Camalier, National Cancer Institute Bethesda, Md., and A549, PANC-1, DLD-1 and NCI-ADR-RES cells were obtained from American Type Culture Collection, Rockville, Md. […]
(§3) A volume of 75 μl of warm growth media containing 5 mg/ml MTT is added to each well, cultures returned to the incubator, and left undisturbed for 3 hours. To spectrophotometrically quantitate formation of reduced formazan, plates are centrifuged (900×g, 5 minutes), culture fluids removed by aspiration, and 200 μl of acidified isopropanol (2 ml concentrated HCl/liter isopropanol) added per well. The absorbance of the resulting solutions is measured at 570 nm with a plate reader (BMG labtech NOVOStar). […] The two standard drug controls (indicated above) are included in each assay to monitor the drug sensitivity of each of the cell lines and IC50 values are determined for each drug-cell combination.

[4] = system: P388 murine leukemia; experiment: MTT antiproliferative/cytotoxicity assay, P388; details: Mus musculus, 48-hr exposure
Method: as §2, §3

[5] = system: PANC-1 human pancreatic cancer; experiment: MTT antiproliferative/cytotoxicity assay, PANC-1; details: 72-h exposure
Method: as §2, §3

[6] = system: NCI-ADR-RES (Formerly MCF-7/ADR) human cancer; experiment: MTT antiproliferative/cytotoxicity assay, NCI-ADR-RES; details: 72-h exposure, read-out: NCIADR-RES IC50
Method: as §2, §3

[7] = system: A549 human lung adenocarcinoma; experiment: MTT antiproliferative/cytotoxicity assay, A549; details: 72-h exposure
Method: as §2, §3

[8] = 10 nM, listed as leiodermatolide
[9] = 100 nM, listed as leiodermatolide

SMILES: CC(=O)O[C@H]1C(=O)[C@@]2(C)[C@H]([C@H](OC(=O)c3ccccc3)[C@]3(O)C[C@H](OC(=O)[C@H](O)[C@@H](NC(=O)c4ccccc4)c4ccccc4)C(C)=C1C3(C)C)[C@]1(OC(C)=O)CO[C@@H]1C[C@@H]2O [Paclitaxel, reference compound]
- G1 (percentage of cells) ([1]; 100 nM): 10%
- G2/M (percentage of cells) ([1]; 100 nM): 88%
- S (percentage of cells) ([1]; 100 nM): 2%
- G1 (percentage of cells) ([1]; 100 nM, listed as paclitaxel): 9.76%
- G2/M (percentage of cells) ([1]; 100 nM, listed as paclitaxel): 88.36%
- S (percentage of cells) ([1]; 100 nM, listed as paclitaxel): 1.88%
- G1 (percentage of cells) ([2]; 100 nM): 2%
- G2/M (percentage of cells) ([2]; 100 nM): 98%
- S (percentage of cells) ([2]; 100 nM): 0%
- G1 (percentage of cells) ([2]; 100 nM, listed as taxol): 2.18%
- G2/M (percentage of cells) ([2]; 100 nM, listed as taxol): 97.82%
- S (percentage of cells) ([2]; 100 nM, listed as taxol): 0.00%

SMILES: CCC1OC(=O)CC(O)(C/C=C/C=C(\C)C2OC(=O)CC/C=C(\C)C(C)C(O)C(C)C(OC(N)=O)/C=C\C=C/C2C)C1C (centres unmarked) [Leiodermatolide]
- G1 (percentage of cells) ([1]; 1 nM): 47.88%
- G2/M (percentage of cells) ([1]; 1 nM): 28.93%
- S (percentage of cells) ([1]; 1 nM): 23.18%
- G1 (percentage of cells) ([1]; 10 nM): 12.04%
- G2/M (percentage of cells) ([1]; 10 nM): 83.45%
- S (percentage of cells) ([1]; 10 nM): 4.51%
- G1 (percentage of cells) [1, 8]: 12%
- G2/M (percentage of cells) [1, 8]: 83%
- S (percentage of cells) [1, 8]: 4%
- G1 (percentage of cells) ([1]; 100 nM): 16.55%
- G2/M (percentage of cells) ([1]; 100 nM): 77.45%
- S (percentage of cells) ([1]; 100 nM): 6.00%
- G1 (percentage of cells) [1, 9]: 16%
- G2/M (percentage of cells) [1, 9]: 77%
- S (percentage of cells) [1, 9]: 6%
- G1 (percentage of cells) ([1]; 1000 nM): 29.54%
- G2/M (percentage of cells) ([1]; 1000 nM): 63.92%
- S (percentage of cells) ([1]; 1000 nM): 6.53%
- IC50 [3]: 8.3 nM
- IC50 [4]: 3.3 nM
- G1 (percentage of cells) ([2]; 1 nM): 55.75%
- G2/M (percentage of cells) ([2]; 1 nM): 13.40%
- S (percentage of cells) ([2]; 1 nM): 30.85%
- G1 (percentage of cells) ([2]; 10 nM): 2.97%
- G2/M (percentage of cells) ([2]; 10 nM): 97.03%
- S (percentage of cells) ([2]; 10 nM): 0.00%
- G1 (percentage of cells) [2, 8]: 3%
- G2/M (percentage of cells) [2, 8]: 97%
- S (percentage of cells) [2, 8]: 0%
- G1 (percentage of cells) ([2]; 100 nM): 1.70%
- G2/M (percentage of cells) ([2]; 100 nM): 98.30%
- S (percentage of cells) ([2]; 100 nM): 0.00%
- G1 (percentage of cells) [2, 9]: 2%
- G2/M (percentage of cells) [2, 9]: 98%
- S (percentage of cells) [2, 9]: 0%
- G1 (percentage of cells) ([2]; 1000 nM): 4.99%
- G2/M (percentage of cells) ([2]; 1000 nM): 95.01%
- S (percentage of cells) ([2]; 1000 nM): 0.00%
- IC50 [5]: 5 nM
- IC50 [6]: 233 nM
- IC50 [7]: 3.3 nM
